Measured values reported in ChEMBL document CHEMBL1140250, “6-Aryl-4-methylsulfanyl-2H-pyran-2-one-3-carbonitriles as PPAR-gamma activators” (Bioorg Med Chem Lett, 2005).

What was measured:
Assay type in all cases: functional
[1] = biological target: T1, Peroxisome proliferator-activated receptor gamma (Homo sapiens) (UniProt P37231); experiment: In vitro agonist activity against human PPAR-gamma receptor in transactivation assay at 1000 nM
T1 sequence (whole entry): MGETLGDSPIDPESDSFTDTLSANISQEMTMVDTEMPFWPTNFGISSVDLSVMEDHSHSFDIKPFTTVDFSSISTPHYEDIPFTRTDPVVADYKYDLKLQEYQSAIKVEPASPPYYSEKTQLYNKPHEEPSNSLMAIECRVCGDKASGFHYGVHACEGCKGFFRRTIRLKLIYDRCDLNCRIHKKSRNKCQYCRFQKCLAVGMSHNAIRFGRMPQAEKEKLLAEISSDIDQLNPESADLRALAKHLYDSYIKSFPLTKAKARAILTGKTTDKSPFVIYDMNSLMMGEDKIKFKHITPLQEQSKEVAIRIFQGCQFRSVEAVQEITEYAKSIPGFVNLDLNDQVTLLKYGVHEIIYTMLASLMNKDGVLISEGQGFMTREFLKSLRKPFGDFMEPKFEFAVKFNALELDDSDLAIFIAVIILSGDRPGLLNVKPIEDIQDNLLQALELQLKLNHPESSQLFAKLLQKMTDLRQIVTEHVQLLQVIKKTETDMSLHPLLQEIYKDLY

[2] = biological target: T1, Peroxisome proliferator-activated receptor gamma (Homo sapiens); experiment: In vitro agonist activity against human PPAR-gamma in transactivation assay at 10 nM
[3] = biological target: T1, Peroxisome proliferator-activated receptor gamma (Homo sapiens); experiment: In vitro agonist activity against human PPAR-gamma in transactivation assay at 100 nM

Row | SMILES | Fold activation [1] | Fold activation [2] | Fold activation [3]
1 | CSc1cc(-c2ccc(OCCN(C)Cc3ccccc3)cc2)oc(=O)c1C#N | 7 | 5 | 4
2 | CCSCCOc1ccc(-c2cc(SCC)c(C#N)c(=O)o2)cc1 | 30 | 7 | 11
3 | CSc1cc(-c2ccc(OCN3CCOCC3)cc2)oc(=O)c1C#N | 5 | 3 | 4
4 | CSc1cc(-c2ccc(OCCN3CCCCC3)cc2)oc(=O)c1C#N | 16 | 3 | 2
5 | COC(=O)c1c(SC)cc(-c2ccc(OCCN3CCCCC3)cc2)oc1=O | 17 | 3 | 3
6 | CSCCOc1ccc(-c2cc(SC)c(C#N)c(=O)o2)cc1 | 60 | 12 | 22
7 | COC(=O)c1c(SC)cc(-c2ccc(OCCSC)cc2)oc1=O | 44 | 9 | 13
8 | CSc1cc(-c2ccc(OCCN(Cc3ccccc3)SC)cc2)oc(=O)c1C#N | 7 | 4 | 6
9 | CSc1cc(-c2ccc(OCCN(C)C)cc2)oc(=O)c1C#N | 7 | 4 | 6

More lines, now with the values ahead:

Row | Fold activation [1] | Fold activation [2] | Fold activation [3] | SMILES
10 | 27 | 9 | 14 | C[S+]([O-])CCOc1ccc(-c2cc([S+](C)[O-])c(C#N)c(=O)o2)cc1 (centres undefined)
11 | 176 | 9 | 28 | CN(CCOc1ccc(CC2SC(=O)NC2=O)cc1)c1ccccn1 (centres undefined)
12 | 19 | 4 | 5 | CSc1cc(-c2ccc(OCCc3nccc4c3CCCC4)cc2)oc(=O)c1C#N
13 | 14 | 3 | 5 | CSc1cc(-c2ccc(OCCSc3ccccc3)cc2)oc(=O)c1C#N
